Key:
Assay type in all cases: in vivo
[1] = system: giant foxtail (Setaria faberii); experiment: Test D pre-/postemergence plant response
Method in brief: (§1)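 Sown seed (loam/sand soil) treated preemergence; emerged plants, 1- to 4-leaf stage and 2 to 18 cm, treated postemergence in peat/vermiculite medium. Greenhouse incubation 13–15 d. Endpoint: visual 0–100 rating versus untreated.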

[2] = system: morningglory (Ipomoea coccinea); experiment: Test D pre-/postemergence plant response
Method in brief: as §1

[3] = system: blackgrass (Alopecurus myosuroides); experiment: Test D pre-/postemergence plant response
Method in brief: as §1

[4] = system: lambsquarters (Chenopodium album); experiment: Test D pre-/postemergence plant response
Method in brief: as §1

[5] = system: velvetleaf (Abutilon theophrasti); experiment: Test D pre-/postemergence plant response
Method in brief: as §1

corn (Zea mays) = experiment: Test D pre-/postemergence plant response
Method in brief: as §1

soybean (Glycine max) = experiment: Test D pre-/postemergence plant response
Method in brief: as §1

[6] = system: pigweed (Amaranthus retroflexus); experiment: Test D pre-/postemergence plant response
Method in brief: as §1

[7] = system: large (Lg) crabgrass (Digitaria sanguinalis); experiment: Test D pre-/postemergence plant response
Method in brief: as §1

[8] = system: barnyardgrass (Echinochloa crus-galli); experiment: Test D pre-/postemergence plant response
Method in brief: as §1

[9] = system: waterhemp (common waterhemp, Amaranthus rudis); experiment: Test D pre-/postemergence plant response
Method in brief: as §1

[10] = system: Italian ryegrass (Lolium multiflorum); experiment: Test D pre-/postemergence plant response
Method in brief: as §1

[11] = system: ragweed (common ragweed, Ambrosia elatior); experiment: Test B pre-/postemergence plant response
Method in brief: (§2)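 Seeds in loam–sand blend given preemergence soil spray; separately, plants at one- to two-leaf stage (2–10 cm) sprayed postemergence, compounds in non-phytotoxic solvent with surfactant. Injury rated visually versus untreated controls after ~10 days in greenhouse, 0 (no effect) to 100 (complete control).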

kochia (Kochia scoparia) = experiment: Test B pre-/postemergence plant response
Method in brief: as §2

[12] = system: Italian ryegrass (Lolium multiflorum); experiment: Test B pre-/postemergence plant response
Method in brief: as §2

[13] = Postemergence, 31 g ai/ha, scale 0 to 100 (0 no effect, 100 complete control)
[14] = Postemergence, 62 g ai/ha, scale 0 to 100, 0 no effect, 100 complete control
[15] = Postemergence, 125 g ai/ha, scale 0 to 100, 0 no effect, 100 complete control
[16] = 31 g ai/ha, Preemergence, 0 to 100 scale where 0 is no effect and 100 is complete control
[17] = 125 g ai/ha, postemergence, 0 to 100 scale, 0 no effect, 100 complete control
[18] = Postemergence, 31 g ai/ha, 0 to 100 scale (0 no effect, 100 complete control)
[19] = Preemergence, 125 g ai/ha, 0 to 100 scale (0 no effect, 100 complete control)
[20] = Preemergence, 16 g ai/ha, scale 0 to 100 (0 no effect, 100 complete control)
[21] = Preemergence, 31 g ai/ha, scale 0 to 100 (0 no effect, 100 complete control)
[22] = Preemergence, 62 g ai/ha, scale 0 to 100 (0 no effect, 100 complete control)
[23] = Postemergence, 500 g ai/ha, 0 to 100 scale (0 no effect, 100 complete control)
[24] = Preemergence, 500 g ai/ha, 0 to 100 scale where 0 is no effect and 100 is complete control

Cc1cc(-c2c(F)cccc2Oc2ncc(Br)cn2)on1 [Compound 230]
Plant response rating (scale 0 to 100), Foxtail, Giant ([1]; Postemergence, 16 g ai/ha): 5 | Foxtail, Giant plant response rating [1, 13]: 5 | Foxtail, Giant plant response rating [1, 14]: 10 | Plant response rating, Foxtail, Giant [1, 15]: 10 | Plant response rating (scale 0 to 100), Morningglory ([2]; Postemergence, 16 g ai/ha): 5 | Morningglory plant response rating [2, 13]: 5 | Morningglory plant response rating [2, 14]: 5 | Plant response rating, Morningglory [2, 15]: 70 | Plant response rating (scale 0 to 100), Blackgrass ([3]; Postemergence, 16 g ai/ha): 0 | Blackgrass plant response rating [3, 13]: 10 | Blackgrass plant response rating [3, 14]: 10 | Plant response rating, Blackgrass [3, 15]: 10 | Plant response rating (scale 0 to 100), Lambsquarters ([4]; Postemergence, 16 g ai/ha): 55 | Lambsquarters plant response rating [4, 13]: 70 | Lambsquarters plant response rating [4, 14]: 80 | Plant response rating, Lambsquarters [4, 15]: 70 | Plant response rating (scale 0 to 100), Velvetleaf ([5]; Postemergence, 16 g ai/ha): 25 | Velvetleaf plant response rating [5, 13]: 40 | Velvetleaf plant response rating [5, 14]: 55 | Plant response rating, Velvetleaf [5, 15]: 65 | Plant response rating (scale 0 to 100), Corn (corn (Zea mays); Postemergence, 16 g ai/ha): 0 | Corn plant response rating (corn (Zea mays); [13]): 0 | Corn plant response rating (corn (Zea mays); [14]): 0 | Plant response rating, Corn (corn (Zea mays); [15]): 15 | Plant response rating (scale 0 to 100), Soybean (soybean (Glycine max); Postemergence, 16 g ai/ha): 50 | Soybean plant response rating (soybean (Glycine max); [13]): 55 | Soybean plant response rating (soybean (Glycine max); [14]): 65 | Plant response rating, Soybean (soybean (Glycine max); [15]): 85 | Plant response rating (scale 0 to 100), Pigweed ([6]; Postemergence, 16 g ai/ha): 60 | Pigweed plant response rating [6, 13]: 65 | Pigweed plant response rating [6, 14]: 70 | Plant response rating, Pigweed [6, 15]: 85 | Plant response rating (scale 0 to 100), Crabgrass, Large ([7]; Postemergence, 16 g ai/ha): 0 | Crabgrass, Large plant response rating [7, 13]: 5 | Crabgrass, Large plant response rating [7, 14]: 5 | Plant response rating, Crabgrass, Large [7, 15]: 10 | Plant response rating (scale 0 to 100), Barnyardgrass ([8]; Postemergence, 16 g ai/ha): 5 | Barnyardgrass plant response rating [8, 13]: 5 | Barnyardgrass plant response rating [8, 14]: 10 | Plant response rating, Barnyardgrass [8, 15]: 5 | Plant response rating (scale 0 to 100), Waterhemp ([9]; Postemergence, 16 g ai/ha): 65 | Waterhemp plant response rating [9, 13]: 70 | Waterhemp plant response rating [9, 14]: 75 | Plant response rating, Waterhemp [9, 15]: 80 | Plant response rating (scale 0 to 100), Ryegrass, Italian ([10]; Postemergence, 16 g ai/ha): 0 | Ryegrass, Italian plant response rating [10, 13]: 0 | Ryegrass, Italian plant response rating [10, 14]: 5 | Plant response rating, Ryegrass, Italian [10, 15]: 5 | Plant response rating, Ragweed [11, 16]: 20 | Plant response rating, Ragweed [11, 17]: 100 | Plant response rating, Ragweed [11, 18]: 70 | Ragweed plant response rating [11, 19]: 80 | Plant response rating, Kochia (kochia (Kochia scoparia); [16]): 60 | Plant response rating, Kochia (kochia (Kochia scoparia); [17]): 100 | Plant response rating, Kochia (kochia (Kochia scoparia); [18]): 80 | Kochia plant response rating (kochia (Kochia scoparia); [19]): 100 | Plant response rating, Ryegrass, Italian [12, 16]: 0 | Plant response rating, Ryegrass, Italian [12, 17]: 0 | Plant response rating, Ryegrass, Italian [12, 18]: 0 | Ryegrass, Italian plant response rating [12, 19]: 0

Clc1cnc(Oc2ccccc2-c2cc(C3CC3)on2)nc1 [Compound 183]
Plant response rating (scale 0 to 100), Foxtail, Giant ([1]; Postemergence, 16 g ai/ha): 5 | Foxtail, Giant plant response rating [1, 13]: 5 | Plant response rating, Foxtail, Giant [1, 14]: 5 | Plant response rating, Foxtail, Giant [1, 15]: 5 | Plant response rating (scale 0 to 100), Foxtail, Giant ([1]; Preemergence, 125 g ai/ha): 100 | Plant response rating, Foxtail, Giant [1, 20]: 5 | Plant response rating, Foxtail, Giant [1, 21]: 35 | Plant response rating, Foxtail, Giant [1, 22]: 80 | Plant response rating (scale 0 to 100), Morningglory ([2]; Postemergence, 16 g ai/ha): 65 | Morningglory plant response rating [2, 13]: 75 | Morningglory plant response rating [2, 14]: 90 | Plant response rating, Morningglory [2, 15]: 90 | Plant response rating (scale 0 to 100), Morningglory ([2]; Preemergence, 125 g ai/ha): 40 | Plant response rating, Morningglory [2, 20]: 0 | Plant response rating, Morningglory [2, 21]: 0 | Plant response rating, Morningglory [2, 22]: 5 | Plant response rating (scale 0 to 100), Blackgrass ([3]; Postemergence, 16 g ai/ha): 0 | Blackgrass plant response rating [3, 13]: 5 | Plant response rating, Blackgrass [3, 14]: 5 | Plant response rating, Blackgrass [3, 15]: 20 | Plant response rating (scale 0 to 100), Blackgrass ([3]; Preemergence, 125 g ai/ha): 50 | Plant response rating, Blackgrass [3, 20]: 0 | Plant response rating, Blackgrass [3, 21]: 0 | Plant response rating, Blackgrass [3, 22]: 0 | Plant response rating (scale 0 to 100), Lambsquarters ([4]; Postemergence, 16 g ai/ha): 35 | Lambsquarters plant response rating [4, 13]: 65 | Lambsquarters plant response rating [4, 14]: 65 | Plant response rating, Lambsquarters [4, 15]: 75 | Plant response rating (scale 0 to 100), Lambsquarters ([4]; Preemergence, 125 g ai/ha): 100 | Plant response rating, Lambsquarters [4, 20]: 80 | Plant response rating, Lambsquarters [4, 21]: 85 | Plant response rating, Lambsquarters [4, 22]: 90 | Plant response rating (scale 0 to 100), Velvetleaf ([5]; Postemergence, 16 g ai/ha): 30 | Velvetleaf plant response rating [5, 13]: 55 | Velvetleaf plant response rating [5, 14]: 55 | Plant response rating, Velvetleaf [5, 15]: 55 | Plant response rating (scale 0 to 100), Velvetleaf ([5]; Preemergence, 125 g ai/ha): 100 | Plant response rating, Velvetleaf [5, 20]: 40 | Plant response rating, Velvetleaf [5, 21]: 80 | Plant response rating, Velvetleaf [5, 22]: 90 | Plant response rating (scale 0 to 100), Corn (corn (Zea mays); Postemergence, 16 g ai/ha): 10 | Corn plant response rating (corn (Zea mays); [13]): 15 | Plant response rating, Corn (corn (Zea mays); [14]): 15 | Plant response rating, Corn (corn (Zea mays); [15]): 20 | Plant response rating (scale 0 to 100), Corn (corn (Zea mays); Preemergence, 125 g ai/ha): 5 | Plant response rating, Corn (corn (Zea mays); [20]): 0 | Plant response rating, Corn (corn (Zea mays); [21]): 0 | Plant response rating, Corn (corn (Zea mays); [22]): 0 | Plant response rating (scale 0 to 100), Soybean (soybean (Glycine max); Postemergence, 16 g ai/ha): 65 | Soybean plant response rating (soybean (Glycine max); [13]): 55 | Soybean plant response rating (soybean (Glycine max); [14]): 75 | Plant response rating, Soybean (soybean (Glycine max); [15]): 90 | Plant response rating (scale 0 to 100), Soybean (soybean (Glycine max); Preemergence, 125 g ai/ha): 80 | Plant response rating, Soybean (soybean (Glycine max); [20]): 0 | Plant response rating, Soybean (soybean (Glycine max); [21]): 10 | Plant response rating, Soybean (soybean (Glycine max); [22]): 35 | Plant response rating (scale 0 to 100), Pigweed ([6]; Postemergence, 16 g ai/ha): 55 | Pigweed plant response rating [6, 13]: 85 | Pigweed plant response rating [6, 14]: 85 | Plant response rating, Pigweed [6, 15]: 95 | Plant response rating (scale 0 to 100), Pigweed ([6]; Preemergence, 125 g ai/ha): 100 | Plant response rating, Pigweed [6, 20]: 50 | Plant response rating, Pigweed [6, 21]: 60 | Plant response rating, Pigweed [6, 22]: 100 | Plant response rating (scale 0 to 100), Crabgrass, Large ([7]; Postemergence, 16 g ai/ha): 5 | Crabgrass, Large plant response rating [7, 13]: 5 | Plant response rating, Crabgrass, Large [7, 14]: 5 | Plant response rating, Crabgrass, Large [7, 15]: 10 | Plant response rating (scale 0 to 100), Crabgrass, Large ([7]; Preemergence, 125 g ai/ha): 100 | Plant response rating, Crabgrass, Large [7, 20]: 5 | Plant response rating, Crabgrass, Large [7, 21]: 70 | Plant response rating, Crabgrass, Large [7, 22]: 98 | Plant response rating (scale 0 to 100), Barnyardgrass ([8]; Postemergence, 16 g ai/ha): 5 | Barnyardgrass plant response rating [8, 13]: 5 | Plant response rating, Barnyardgrass [8, 14]: 5 | Plant response rating, Barnyardgrass [8, 15]: 5 | Plant response rating (scale 0 to 100), Barnyardgrass ([8]; Preemergence, 125 g ai/ha): 90 | Plant response rating, Barnyardgrass [8, 20]: 5 | Plant response rating, Barnyardgrass [8, 21]: 5 | Plant response rating, Barnyardgrass [8, 22]: 30 | Plant response rating (scale 0 to 100), Waterhemp ([9]; Postemergence, 16 g ai/ha): 80 | Waterhemp plant response rating [9, 13]: 80 | Waterhemp plant response rating [9, 14]: 75 | Plant response rating, Waterhemp [9, 15]: 98 | Plant response rating (scale 0 to 100), Waterhemp ([9]; Preemergence, 125 g ai/ha): 100 | Plant response rating, Waterhemp [9, 20]: 10 | Plant response rating, Waterhemp [9, 21]: 100 | Plant response rating, Waterhemp [9, 22]: 95 | Plant response rating (scale 0 to 100), Ryegrass, Italian ([10]; Postemergence, 16 g ai/ha): 0 | Ryegrass, Italian plant response rating [10, 13]: 0 | Ryegrass, Italian plant response rating [10, 14]: 5 | Plant response rating, Ryegrass, Italian [10, 15]: 10 | Plant response rating (scale 0 to 100), Ryegrass, Italian ([10]; Preemergence, 125 g ai/ha): 50 | Plant response rating, Ryegrass, Italian [10, 20]: 0 | Plant response rating, Ryegrass, Italian [10, 21]: 0 | Plant response rating, Ryegrass, Italian [10, 22]: 15 | Plant response rating, Ragweed [11, 17]: 20 | Plant response rating, Ragweed [11, 23]: 30 | Ragweed plant response rating [11, 19]: 0 | Plant response rating, Ragweed [11, 24]: 60 | Plant response rating, Kochia (kochia (Kochia scoparia); [17]): 100 | Plant response rating, Kochia (kochia (Kochia scoparia); [23]): 100 | Kochia plant response rating (kochia (Kochia scoparia); [19]): 80 | Plant response rating, Kochia (kochia (Kochia scoparia); [24]): 100 | Plant response rating, Ryegrass, Italian [12, 17]: 40 | Plant response rating, Ryegrass, Italian [12, 23]: 70 | Ryegrass, Italian plant response rating [12, 19]: 20 | Plant response rating, Ryegrass, Italian [12, 24]: 40
